Drawing on patent publication US20260234157A1, “COMPOUND AND METHOD FOR TARGETED DEGRADATION OF ANDROGEN RECEPTOR” (Gan & Lee Pharmaceuticals Co., Ltd., priority 2023, published 2026), this text covers inhibition and IC50 for 13 compounds.

What all share (type): cell-based
Test [1] deals with T1, AR protein (Homo sapiens, UniProt P10275, T878A).
T1 construct: degradation activity of the compounds disclosed in the present disclosure on AR protein in LNCaP cells; host or cells: LNCaP FGC
T1 sequence (P10275 1-920 T878A): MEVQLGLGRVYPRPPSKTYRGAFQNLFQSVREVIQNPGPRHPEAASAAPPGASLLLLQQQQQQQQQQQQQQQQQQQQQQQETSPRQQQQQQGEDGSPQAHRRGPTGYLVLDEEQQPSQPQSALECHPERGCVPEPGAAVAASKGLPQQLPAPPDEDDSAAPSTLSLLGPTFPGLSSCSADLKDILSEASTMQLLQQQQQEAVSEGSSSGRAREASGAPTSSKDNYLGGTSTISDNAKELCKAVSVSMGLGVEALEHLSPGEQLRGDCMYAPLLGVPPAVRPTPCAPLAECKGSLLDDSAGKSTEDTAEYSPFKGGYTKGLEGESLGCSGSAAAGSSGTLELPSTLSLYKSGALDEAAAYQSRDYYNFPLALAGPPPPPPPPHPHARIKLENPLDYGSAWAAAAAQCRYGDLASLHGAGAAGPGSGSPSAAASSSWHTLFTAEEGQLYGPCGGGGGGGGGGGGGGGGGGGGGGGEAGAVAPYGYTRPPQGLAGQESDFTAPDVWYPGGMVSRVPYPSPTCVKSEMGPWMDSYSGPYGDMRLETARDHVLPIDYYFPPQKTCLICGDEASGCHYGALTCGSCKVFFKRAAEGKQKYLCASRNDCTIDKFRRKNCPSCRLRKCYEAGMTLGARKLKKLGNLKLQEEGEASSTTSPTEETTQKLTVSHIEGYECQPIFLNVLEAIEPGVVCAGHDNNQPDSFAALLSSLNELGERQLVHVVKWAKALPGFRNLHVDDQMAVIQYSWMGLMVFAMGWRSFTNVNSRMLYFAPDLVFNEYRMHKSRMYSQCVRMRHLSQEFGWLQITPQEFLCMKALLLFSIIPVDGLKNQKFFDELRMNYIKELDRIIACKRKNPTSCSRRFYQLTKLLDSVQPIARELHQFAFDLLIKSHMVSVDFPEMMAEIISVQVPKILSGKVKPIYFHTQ
Briefly: Degradation of AR protein in LNCaP cells (Western blot). To be noted: LNCaP cells, 8 hours, Western blot grayscale, GAPDH internal reference; for inhibition at 0.01 µM: compound 10 nM, read-out: Degradation rates of the AR protein in LNCaP cells, 10 nM (%); for inhibition at 0.1 µM: compound 100 nM, read-out: Degradation rates of the AR protein in LNCaP cells, 100 nM (%). Put shortly: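 Percent AR degradation was derived from GAPDH-normalised Western blot band intensities (infrared detection) in LNCaP lysates.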

The target in test [2] is T2, AR protein (Homo sapiens, UniProt P10275).
T2 construct: degradation activity of the compounds disclosed in the present disclosure on AR protein in VCaP cells; host or cells: VCaP
T2 sequence (P10275 1-920): T1 sequence (P10275 1-920 T878A) with A878T
The test is described as follows: Degradation of AR protein in VCaP cells (Western blot). To be noted: 8 hours; for inhibition at 0.01 µM: compound at 10 nM, read-out: Degradation rate of the AR protein in VCaP cells, 10 nM (%); for inhibition at 0.1 µM: compound at 100 nM, read-out: Degradation rate of the AR protein in VCaP cells, 100 nM (%). Put shortly:
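Western blot readout: AR band grayscale normalised to GAPDH, used to derive degradation rate. Lysates came from VCaP cells exposed to compound for 8 h, with solvent controls run in parallel.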
On the technique in general: In western blotting, separated proteins are transferred to a membrane and probed.

The test system of another test is VCaP cells. The test is described as follows: Inhibition of proliferation of VCaP cells (WST-8). To be noted: Homo sapiens; VCaP cells, 168 hours, WST-8 absorbance at 450 nm; read-out: IC50 for inhibiting the proliferation of VCaP cells. Put shortly:
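Proliferation was read by WST-8 on day nine. Cells were VCaP FGC, seeded at 15000 cells per well in 10% FBS DMEM and kept at 37° C with 5% CO2.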

The subject of another test is LNCaP FGC cells. The test is described as follows: Inhibition of proliferation of LNCaP cells (WST-8). To be noted: Homo sapiens, LNCaP, 96 h, LNCaP FGC cells, 96 hours, WST-8 absorbance at 450 nm; read-out: IC50 for inhibiting the proliferation of LNCaP cells. How it is done: The cells were cultured in a cell culture incubator with 5% CO2 at 37° C. overnight. […] On the sixth day, 96 well plates were taken out, and 20 μL of WST-8 (Beytime, C0040) reagent was added to each well.
A general note: Tetrazolium dyes change colour on reduction, which living cells bring about.

Positions count from the first letter of the chain named.

Turning to `N#Cc1ccc(O[C@H]2CC[C@H](NC(=O)c3ccc(N4CCC5(CCC(N6CCC7(CC6)COc6cc8c(cc6C7)C(=O)N(C6CCC(=O)NC6=O)C8=O)CC5)CC4)nn3)CC2)cc1Cl` (stereo partly drawn) [Compound 64], the inhibition at 0.01 µM at AR protein [1] is 44%; at AR protein [2] it was 62%. Moreover, the results for the inhibition at 0.1 µM on AR protein [1] and on AR protein [2] were 72% and 73%, respectively. Besides, the IC50 in the test with VCaP cells turned out to be 160 nM; in the test on LNCaP FGC cells, 800 nM.

On to `N#Cc1ccc(O[C@H]2CC[C@H](NC(=O)c3ccc(N4CCC5(CC(N6CCC7(CC6)COc6cc8c(cc6C7)C(=O)N(C6CCC(=O)NC6=O)C8=O)C5)C4)nn3)CC2)cc1Cl` (stereo partly drawn) [Compound 63], for which the inhibition at 0.01 µM at AR protein [1] was found to be 0%; on AR protein [2], 67%. The inhibition at 0.1 µM on AR protein [1] is 65%; on AR protein [2], 81%. In addition, the IC50 in the test with VCaP cells was found to be 240 nM; with LNCaP FGC cells it was 500 nM.

Consider `COc1cc(O[C@H]2CC[C@H](NC(=O)c3ccc(N4CCC(F)(CN5CC6(CCc7cc8c(cc7O6)CN(C6CCC(=O)NC6=O)C8=O)C5)CC4)nn3)CC2)ccc1C#N` (stereo partly drawn) [Compound 209], for which the inhibition at 0.01 µM at AR protein [1] amounted to 49%; at AR protein [2], 39%. Besides, the inhibition at 0.1 µM on AR protein [1] was 25%; at AR protein [2], 67%. Also, the figures for the IC50 with VCaP cells and in the test on LNCaP FGC cells were 2 nM and 1760 nM, respectively.

For `COc1cc(O[C@H]2CC[C@H](NC(=O)c3ccc(N4CCC(CN5CC6(CCc7cc8c(cc7O6)C(=O)N(C6CCC(=O)NC6=O)C8=O)C5)(OC)CC4)nn3)CC2)ccc1C#N` (stereo partly drawn) [Compound 231], the inhibition at 0.01 µM was found to be 31% on AR protein [1] and 11% at AR protein [2]. For the same compound, the inhibition at 0.1 µM came to 28% on AR protein [1] and 63% on AR protein [2]. For the same compound, the IC50 in the test on VCaP cells worked out at 5120 nM; with LNCaP FGC cells it was 3710 nM.

On to `N#Cc1ccc(O[C@H]2CC[C@H](NC(=O)c3ccc(N4CCC(C#N)(CN5CCC6(CC5)COc5c6ccc6c5C(=O)N(C5CCC(=O)NC5=O)C6=O)CC4)nn3)CC2)cc1C(F)(F)F` (stereo partly drawn) [Compound 228], for which the inhibition at 0.01 µM is 30% on AR protein [1] and -9% on AR protein [2]. Moreover, the inhibition at 0.1 µM at AR protein [1] came out at 56%; on AR protein [2], 18%. The IC50 in the test on VCaP cells amounted to 470 nM; in the test with LNCaP FGC cells it was 2290 nM.

In the case of `N#Cc1ccc(O[C@H]2CC[C@H](NC(=O)c3ccc(N4CC5(CC(C(=O)N6CCC7(CC6)COc6c7ccc7c6CN(C6CCC(=O)NC6=O)C7=O)C5)C4)nn3)CC2)cc1Cl` (stereo partly drawn) [Compound 256], the inhibition at 0.01 µM on AR protein [1] worked out at 47%; at AR protein [2] it was 48%. Moreover, the inhibition at 0.1 µM at AR protein [1] was 36%; on AR protein [2], 81%. The values for the IC50 in the test with VCaP cells and with LNCaP FGC cells were 7.5 nM and 56000 nM, respectively.

In the case of `N#Cc1ccc(O[C@H]2CC[C@H](NC(=O)c3ccc(N4CCC(F)(CN5CC6(CCc7ccc8c(c7O6)C(=O)N(C6CCC(=O)NC6=O)C8=O)C5)CC4)nn3)CC2)cc1Cl` (stereo partly drawn) [Compound 164], the inhibition at 0.01 µM on AR protein [1] is 25%; on AR protein [2] it was 4%. Further, the inhibition at 0.1 µM at AR protein [1] came to 4%; on AR protein [2], 8%. Also, the IC50 in the test with VCaP cells was determined as 11800 nM; with LNCaP FGC cells, 90500 nM.

In the case of `N#Cc1ccc(O[C@H]2CC[C@H](NC(=O)c3ccc(N4CC[C@@H](CN5CCC6(CC5)COc5cc7c(cc56)C(=O)N(C5CCC(=O)NC5=O)C7=O)C4)nn3)CC2)cc1Cl` (stereo partly drawn) [Compound 57], the figures for the inhibition at 0.01 µM at AR protein [1] and at AR protein [2] were 45% and 66%, respectively. The inhibition at 0.1 µM is 72% at AR protein [1] and 80% at AR protein [2]. Also, the figures for the IC50 in the test with VCaP cells and in the test on LNCaP FGC cells were 38 nM and 1360 nM, respectively.

As to `N#Cc1ccc(O[C@H]2CC[C@H](NC(=O)c3ccc(N4CCC5(CC4)CC(C(=O)N4CCC6(CC4)COc4c6ccc6c4CN(C4CCC(=O)NC4=O)C6=O)C5)nn3)CC2)cc1Cl` (stereo partly drawn) [Compound 254], the inhibition at 0.01 µM on AR protein [1] amounted to 53%; at AR protein [2] it was 56%. For the same compound, the inhibition at 0.1 µM at AR protein [1] is 45%; on AR protein [2], 85%. Also, the IC50 was 2.5 nM in the test on VCaP cells and 49100 nM with LNCaP FGC cells.

Take `COc1cc(O[C@H]2C(C)(C)[C@H](NC(=O)c3ccc(N4CCC(CN5CC6(CCc7cc8c(cc7O6)CN(C6CCC(=O)NC6=O)C8=O)C5)CC4)cc3)C2(C)C)ccc1C#N` (stereo partly drawn) [Compound 297]: the inhibition at 0.01 µM was 42% on AR protein [1] and 47% at AR protein [2]. Further, the inhibition at 0.1 µM on AR protein [1] came to 40%; at AR protein [2] it was 81%. Besides, the IC50 with VCaP cells is 2 nM; in the test with LNCaP FGC cells it was 61400 nM.

As for `COC1(CN2CC3(CCc4ccc5c(c4O3)C(=O)N(C3CCC(=O)NC3=O)C5)C2)CCN(c2ccc(C(=O)N[C@H]3CC[C@H](Oc4ccc(C#N)c(Cl)c4)CC3)nn2)CC1` (stereo partly drawn) [Compound 138], the inhibition at 0.01 µM on AR protein [1] is -9%; on AR protein [2] it was -28%. Besides, the inhibition at 0.1 µM at AR protein [1] was -1%; on AR protein [2] it was 7%. The IC50 in the test with VCaP cells is > 90000 nM; in the test with LNCaP FGC cells, 71500 nM.

Regarding `COC1(CN2CCC3(CC2)COc2cc4c(cc2C3)C(=O)N(C2CCC(=O)NC2=O)C4=O)CCN(c2ccc(C(=O)NC3CCC(Oc4ccc(C#N)c(Cl)c4)CC3)nn2)CC1` (stereo not drawn) [Compound 69], the inhibition at 0.01 µM on AR protein [1] turned out to be 26%; at AR protein [2], 50%. The inhibition at 0.1 µM amounted to 64% on AR protein [1] and 78% on AR protein [2]. The IC50 in the test with VCaP cells is 960 nM; in the test with LNCaP FGC cells, 390 nM.

On to `N#Cc1ccc(O[C@H]2CC[C@H](NC(=O)c3ccc(N4CCC5(CCC(N6CCC7(CCc8cc9c(cc8O7)C(=O)N(C7CCC(=O)NC7=O)C9=O)CC6)CC5)CC4)nn3)CC2)cc1Cl` (stereo partly drawn) [Compound 30], for which the values for the inhibition at 0.01 µM on AR protein [1] and on AR protein [2] were 28% and 39%, respectively. Besides, the inhibition at 0.1 µM amounted to 62% on AR protein [1] and 64% on AR protein [2]. The values for the IC50 in the test on VCaP cells and with LNCaP FGC cells were 850 nM and 1900 nM, respectively.
